Reference: patent US7935853B2, “Micronized composition of a 2,4-disubstituted phenol derivative” (priority 2008, dated 2011)

Tested on: arthritis induced by injection of type II collagen in the mouse
Experiment: Model of arthritis induced by type II collagen in mice (CIA), hind paw plethysmometry
Assay type: in vivo
Details: for Total hind paw volume (sum of both hind paws) / Oedema (difference in paw volume from basal values on day 21) in both hind paws: group mean n=10, listed as Group E; for percentage inhibition of oedema versus the control group: 10 mg/kg BID
Experimental: The aim of the study was to determine the anti-inflammatory activity of the test item in a model of arthritis induced by injection of type II collagen in the mouse (CIA) and to compare the activity of two different formulations: micronized and non-micronized.
Induction of arthritis was carried out by an initial exposure to type II bovine collagen by a subcutaneous injection at the base of the tail (induction phase).
After a recovery time of 21 days, animals received a booster injection and approximately 4-5 weeks after the first injection there was an immune response with arthritis appearing in the extremities in the majority of the cases.
Four experimental groups were used in the study with 10 animals in each group:
Group D: Positive control: FCA+vehicle B.I.D.
Group E: Micronized Test Item (Micro) 10 mg/kg B.I.D.
Group F: Non-Micronized test item 10 mg/kg B.I.D.
Group G: Reference item: Indomethacin 1 mg/kg Q.D.
The dose administered to groups E and F was 10 mg/kg.
The dose administered to group G was 1 mg/kg.
The doses of the test and reference items were expressed as mg/Kg of compound administered to each animal.
The test and reference items were administered in a solution of methylcellulose (0.25%: vehicle).
The positive control group received the vehicle (methylcellulose 0.25%).
The test and reference items, as well as the vehicle were administered orally at a dosing volume of 5 mls/kg.
The route of administration used was oral by use of an intragastric cannula.
On the day of start of the study each mouse was injected subcutaneously at the base of the tail with a first dose of 0.1 ml of an emulsion of bovine type II collagen (1 mg/mL) in Freund's Complete Adjuvant. Afterwards, on day 21 after this first injection, a second booster injection of type II collagen was administered to all animals. In this occasion the collagen suspension was done using Incomplete Freund's Adjuvant.
Coinciding with the second booster injection on day 21 treatment with the test or reference items was started to the corresponding animals.
Treatment with the test or reference items was carried out for 31 consecutive days (days 21-51 of the experimental period). Additionally, a recovery period was included at the end of the treatment period from day 52 to day 65 in order to evaluate the duration of any anti-inflammatory effect observed once dosing has been terminated.
The animals' hind paw volume was measured by plethysmometry one day before the 1st injection of collagen, again one day before the second (booster) collagen injection (basal values) and then daily after administration of test/reference item until the end of the study. During the recovery period at the end of the study, hind paw volume was measured three times per week.
Additionally the data was also represented graphically, depicting changes in total hind paw volume, as well as oedema (differences from basal (day 21) values).

[1] = day 22, oral treatment days 21-51
[2] = day 23, oral treatment days 21-51
[3] = day 26, oral treatment days 21-51
[4] = day 27, oral treatment days 21-51
[5] = day 29, oral treatment days 21-51
[6] = day 30, oral treatment days 21-51
[7] = day 33, oral treatment days 21-51
[8] = day 34, oral treatment days 21-51
[9] = day 35, oral treatment days 21-51
[10] = day 36, oral treatment days 21-51
[11] = day 37, oral treatment days 21-51
[12] = day 40, oral treatment days 21-51
[13] = day 41, oral treatment days 21-51
[14] = day 42, oral treatment days 21-51
[15] = day 43, oral treatment days 21-51
[16] = day 44, oral treatment days 21-51
[17] = day 47, oral treatment days 21-51
[18] = day 48, oral treatment days 21-51
[19] = day 49, oral treatment days 21-51
[20] = day 50, oral treatment days 21-51
[21] = day 51, oral treatment days 21-51
[22] = day 54, recovery period after treatment days 21-51
[23] = day 56, recovery period after treatment days 21-51
[24] = day 58, recovery period after treatment days 21-51
[25] = day 61, recovery period after treatment days 21-51
[26] = day 63, recovery period after treatment days 21-51
[27] = day 65, recovery period after treatment days 21-51

Oc1c(I)cc(I)cc1I [Micronized, 2,4,6-triiodophenol]
Total hind paw volume (sum of both hind paws) (day 0, before collagen and treatment): 0.169
Total hind paw volume (sum of both hind paws) (day 20, basal, before treatment): 0.238
Oedema (difference in paw volume from basal values on day 21) in both hind paws [1]: 0.006
Total hind paw volume (sum of both hind paws) [1]: 0.244
Oedema (difference in paw volume from basal values on day 21) in both hind paws [2]: −0.010
Total hind paw volume (sum of both hind paws) [2]: 0.228
Oedema (difference in paw volume from basal values on day 21) in both hind paws [3]: 0.014
Total hind paw volume (sum of both hind paws) [3]: 0.252
Oedema (difference in paw volume from basal values on day 21) in both hind paws [4]: −0.007
Total hind paw volume (sum of both hind paws) [4]: 0.231
Oedema (difference in paw volume from basal values on day 21) in both hind paws [5]: −0.003
Total hind paw volume (sum of both hind paws) [5]: 0.234
Oedema (difference in paw volume from basal values on day 21) in both hind paws [6]: −0.001
Total hind paw volume (sum of both hind paws) [6]: 0.237
Oedema (difference in paw volume from basal values on day 21) in both hind paws [7]: −0.007
Total hind paw volume (sum of both hind paws) [7]: 0.231
Oedema (difference in paw volume from basal values on day 21) in both hind paws [8]: −0.010
Total hind paw volume (sum of both hind paws) [8]: 0.228
Oedema (difference in paw volume from basal values on day 21) in both hind paws [9]: 0.012
Total hind paw volume (sum of both hind paws) [9]: 0.250
Oedema (difference in paw volume from basal values on day 21) in both hind paws [10]: 0.006
Total hind paw volume (sum of both hind paws) [10]: 0.244
Oedema (difference in paw volume from basal values on day 21) in both hind paws [11]: 0.001
Total hind paw volume (sum of both hind paws) [11]: 0.239
Oedema (difference in paw volume from basal values on day 21) in both hind paws [12]: 0.026
Total hind paw volume (sum of both hind paws) [12]: 0.263
Oedema (difference in paw volume from basal values on day 21) in both hind paws [13]: 0.018
Total hind paw volume (sum of both hind paws) [13]: 0.256
Oedema (difference in paw volume from basal values on day 21) in both hind paws [14]: 0.003
Total hind paw volume (sum of both hind paws) [14]: 0.241
Oedema (difference in paw volume from basal values on day 21) in both hind paws [15]: 0.006
Total hind paw volume (sum of both hind paws) [15]: 0.244
Oedema (difference in paw volume from basal values on day 21) in both hind paws [16]: 0.001
Total hind paw volume (sum of both hind paws) [16]: 0.238
Oedema (difference in paw volume from basal values on day 21) in both hind paws [17]: 0.016
Total hind paw volume (sum of both hind paws) [17]: 0.254
percentage inhibition of oedema versus the control group (day 48, P<0.05): 68.72±8.98%
Oedema (difference in paw volume from basal values on day 21) in both hind paws [18]: 0.016
Total hind paw volume (sum of both hind paws) [18]: 0.254
Oedema (difference in paw volume from basal values on day 21) in both hind paws [19]: 0.023
Total hind paw volume (sum of both hind paws) [19]: 0.261
percentage inhibition of oedema versus the control group (day 50, P<0.05): 70.56±9.88%
Oedema (difference in paw volume from basal values on day 21) in both hind paws [20]: 0.017
Total hind paw volume (sum of both hind paws) [20]: 0.255
percentage inhibition of oedema versus the control group (day 51, highly significant): 77.59±9.08%
Oedema (difference in paw volume from basal values on day 21) in both hind paws [21]: 0.013
Total hind paw volume (sum of both hind paws) [21]: 0.251
Oedema (difference in paw volume from basal values on day 21) in both hind paws [22]: 0.032
Total hind paw volume (sum of both hind paws) [22]: 0.270
Oedema (difference in paw volume from basal values on day 21) in both hind paws [23]: 0.022
Total hind paw volume (sum of both hind paws) [23]: 0.259
percentage inhibition of oedema versus the control group (day 56, P<0.05): 71.49±7.19%
Oedema (difference in paw volume from basal values on day 21) in both hind paws [24]: 0.030
Total hind paw volume (sum of both hind paws) [24]: 0.268
percentage inhibition of oedema versus the control group (day 58, P<0.05): 66.29±5.13%
Oedema (difference in paw volume from basal values on day 21) in both hind paws [25]: 0.030
Total hind paw volume (sum of both hind paws) [25]: 0.27
Oedema (difference in paw volume from basal values on day 21) in both hind paws [26]: 0.026
Total hind paw volume (sum of both hind paws) [26]: 0.26
Oedema (difference in paw volume from basal values on day 21) in both hind paws [27]: 0.029
Total hind paw volume (sum of both hind paws) [27]: 0.27
percentage inhibition of oedema versus the control group (day 65, P<0.05): 64.95±7.58%
